Laboratory results from publication doi:10.1101/2024.08.13.607785v1 (biorxiv, 2024).
Read-outs that look alike come from different tables or passages of the source.

Experiments:
Assay in all cases: biochemical
Set-up in all cases: species or system human cell line lysate
[1] = target: Ribosomal protein S6 kinase alpha-4 ; RPS6KA4 ; O75676 (Homo sapiens, UniProt O75676)
[2] = target: Isoform 2 of Focal adhesion kinase 1 ; PTK2 ; Q05397-2 (Homo sapiens, UniProt Q05397)
[3] = target: Casein kinase I isoform delta ; CSNK1D ; P48730 (Homo sapiens, UniProt P48730)
[4] = target: Serine/threonine-protein kinase TAO1 ; TAOK1 ; Q7L7X3 (Homo sapiens, UniProt Q7L7X3)
[5] = target: Isoform 3 of Mitogen-activated protein kinase 8 ; MAPK8 ; P45983-3 (Homo sapiens, UniProt P45983)
[6] = target: Isoform IB of Tyrosine-protein kinase ABL1 ; ABL1 ; P00519-2 (Homo sapiens, UniProt P00519)
[7] = target: Tyrosine-protein kinase FRK ; FRK ; P42685 (Homo sapiens, UniProt P42685)
[8] = target: Mitogen-activated protein kinase kinase kinase kinase 2 ; MAP4K2 ; Q12851 (Homo sapiens, UniProt Q12851)
[9] = target: Tyrosine-protein kinase HCK ; HCK ; P08631 (Homo sapiens, UniProt P08631)
[10] = target: Mitogen-activated protein kinase 9 ; MAPK9 ; P45984 (Homo sapiens, UniProt P45984)
[11] = target: Mitogen-activated protein kinase 6 ; MAPK6 ; Q16659 (Homo sapiens, UniProt Q16659)
[12] = target: Ephrin type-A receptor 4 ; EPHA4 ; P54764 (Homo sapiens, UniProt P54764)
[13] = target: Serine/threonine-protein kinase N3 ; PKN3 ; Q6P5Z2 (Homo sapiens, UniProt Q6P5Z2)
[14] = target: Mitogen-activated protein kinase 1 ; MAPK1 ; P28482 (Homo sapiens, UniProt P28482)
[15] = target: Casein kinase I isoform gamma-1 ; CSNK1G1 ; Q9HCP0 (Homo sapiens, UniProt Q9HCP0)
[16] = target: Serine/threonine-protein kinase Nek3 ; NEK3 ; P51956 (Homo sapiens, UniProt P51956)
[17] = target: Isoform 1A of Mitogen-activated protein kinase kinase kinase 7 ; MAP3K7 ; O43318-2 (Homo sapiens, UniProt O43318)
[18] = target: Mitogen-activated protein kinase kinase kinase kinase 3 ; MAP4K3 ; Q8IVH8 (Homo sapiens, UniProt Q8IVH8)
[19] = target: Atypical kinase COQ8A, mitochondrial ; COQ8A ; Q8NI60 (Homo sapiens, UniProt Q8NI60)
[20] = target: Focal adhesion kinase 1 ; PTK2 ; Q05397 (Homo sapiens, UniProt Q05397)
[21] = target: Ephrin type-A receptor 5 ; EPHA5 ; P54756 (Homo sapiens, UniProt P54756)
[22] = target: BMP-2-inducible protein kinase ; BMP2K ; Q9NSY1 (Homo sapiens, UniProt Q9NSY1)
[23] = target: Mitotic checkpoint serine/threonine-protein kinase BUB1 ; BUB1 ; O43683 (Homo sapiens, UniProt O43683)
[24] = read-out: BAY-1143572 (10 µM) / %Intensity relative to DMSO
[25] = read-out: BAY-1251152 (10 µM) / %Intensity relative to DMSO

Casein kinase I isoform gamma-1 ; CSNK1G1 ; Q9HCP0, sequence (Q9HCP0 whole entry, canonical isoform): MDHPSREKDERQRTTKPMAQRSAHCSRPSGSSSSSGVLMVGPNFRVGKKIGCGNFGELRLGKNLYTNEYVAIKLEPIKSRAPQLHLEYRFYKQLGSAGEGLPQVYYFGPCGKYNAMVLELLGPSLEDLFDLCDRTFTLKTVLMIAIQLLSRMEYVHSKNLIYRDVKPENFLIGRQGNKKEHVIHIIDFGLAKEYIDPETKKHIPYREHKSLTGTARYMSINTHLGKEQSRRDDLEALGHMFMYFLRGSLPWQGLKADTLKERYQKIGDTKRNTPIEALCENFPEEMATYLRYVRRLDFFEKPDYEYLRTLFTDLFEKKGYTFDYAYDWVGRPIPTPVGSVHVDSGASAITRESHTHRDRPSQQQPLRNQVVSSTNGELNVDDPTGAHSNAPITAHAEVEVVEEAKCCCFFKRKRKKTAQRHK
Ribosomal protein S6 kinase alpha-4 ; RPS6KA4 ; O75676, sequence (O75676 whole entry, canonical isoform): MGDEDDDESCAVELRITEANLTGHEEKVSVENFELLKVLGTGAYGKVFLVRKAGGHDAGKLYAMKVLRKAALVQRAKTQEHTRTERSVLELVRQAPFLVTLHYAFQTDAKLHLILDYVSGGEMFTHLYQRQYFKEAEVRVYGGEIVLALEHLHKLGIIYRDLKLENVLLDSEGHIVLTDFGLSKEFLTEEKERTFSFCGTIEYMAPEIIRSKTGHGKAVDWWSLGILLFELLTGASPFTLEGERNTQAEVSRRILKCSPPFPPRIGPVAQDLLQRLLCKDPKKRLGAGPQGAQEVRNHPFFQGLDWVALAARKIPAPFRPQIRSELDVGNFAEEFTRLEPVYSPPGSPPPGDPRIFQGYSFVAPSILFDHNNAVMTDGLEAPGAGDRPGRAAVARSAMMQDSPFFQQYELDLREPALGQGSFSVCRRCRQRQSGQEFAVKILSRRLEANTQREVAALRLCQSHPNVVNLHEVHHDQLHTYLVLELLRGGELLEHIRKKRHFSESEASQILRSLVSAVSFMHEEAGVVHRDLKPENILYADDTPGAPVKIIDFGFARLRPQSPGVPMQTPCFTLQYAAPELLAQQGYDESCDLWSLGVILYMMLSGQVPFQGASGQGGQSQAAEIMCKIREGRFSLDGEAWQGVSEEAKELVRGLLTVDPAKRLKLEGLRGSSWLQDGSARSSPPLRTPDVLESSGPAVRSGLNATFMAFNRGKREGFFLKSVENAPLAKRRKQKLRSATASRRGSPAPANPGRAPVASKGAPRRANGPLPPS
Isoform 1A of Mitogen-activated protein kinase kinase kinase 7 ; MAP3K7 ; O43318-2, sequence (O43318 whole entry, canonical isoform): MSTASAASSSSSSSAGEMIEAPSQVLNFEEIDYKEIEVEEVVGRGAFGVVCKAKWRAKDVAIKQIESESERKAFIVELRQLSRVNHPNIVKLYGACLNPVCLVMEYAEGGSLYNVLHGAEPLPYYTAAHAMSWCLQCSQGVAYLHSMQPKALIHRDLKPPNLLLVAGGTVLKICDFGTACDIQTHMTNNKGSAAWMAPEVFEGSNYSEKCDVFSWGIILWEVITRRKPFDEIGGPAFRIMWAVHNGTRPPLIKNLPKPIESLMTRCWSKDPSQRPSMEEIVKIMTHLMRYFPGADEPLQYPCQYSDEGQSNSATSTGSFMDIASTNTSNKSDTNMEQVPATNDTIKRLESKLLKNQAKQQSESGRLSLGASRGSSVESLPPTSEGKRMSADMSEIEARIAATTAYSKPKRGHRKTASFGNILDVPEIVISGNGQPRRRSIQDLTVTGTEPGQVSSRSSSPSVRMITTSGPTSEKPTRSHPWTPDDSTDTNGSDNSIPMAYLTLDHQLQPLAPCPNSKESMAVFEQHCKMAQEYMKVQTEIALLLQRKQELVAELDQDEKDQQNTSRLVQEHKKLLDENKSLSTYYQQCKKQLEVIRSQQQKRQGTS
Serine/threonine-protein kinase TAO1 ; TAOK1 ; Q7L7X3, sequence (Q7L7X3 whole entry, canonical isoform, one chain of several): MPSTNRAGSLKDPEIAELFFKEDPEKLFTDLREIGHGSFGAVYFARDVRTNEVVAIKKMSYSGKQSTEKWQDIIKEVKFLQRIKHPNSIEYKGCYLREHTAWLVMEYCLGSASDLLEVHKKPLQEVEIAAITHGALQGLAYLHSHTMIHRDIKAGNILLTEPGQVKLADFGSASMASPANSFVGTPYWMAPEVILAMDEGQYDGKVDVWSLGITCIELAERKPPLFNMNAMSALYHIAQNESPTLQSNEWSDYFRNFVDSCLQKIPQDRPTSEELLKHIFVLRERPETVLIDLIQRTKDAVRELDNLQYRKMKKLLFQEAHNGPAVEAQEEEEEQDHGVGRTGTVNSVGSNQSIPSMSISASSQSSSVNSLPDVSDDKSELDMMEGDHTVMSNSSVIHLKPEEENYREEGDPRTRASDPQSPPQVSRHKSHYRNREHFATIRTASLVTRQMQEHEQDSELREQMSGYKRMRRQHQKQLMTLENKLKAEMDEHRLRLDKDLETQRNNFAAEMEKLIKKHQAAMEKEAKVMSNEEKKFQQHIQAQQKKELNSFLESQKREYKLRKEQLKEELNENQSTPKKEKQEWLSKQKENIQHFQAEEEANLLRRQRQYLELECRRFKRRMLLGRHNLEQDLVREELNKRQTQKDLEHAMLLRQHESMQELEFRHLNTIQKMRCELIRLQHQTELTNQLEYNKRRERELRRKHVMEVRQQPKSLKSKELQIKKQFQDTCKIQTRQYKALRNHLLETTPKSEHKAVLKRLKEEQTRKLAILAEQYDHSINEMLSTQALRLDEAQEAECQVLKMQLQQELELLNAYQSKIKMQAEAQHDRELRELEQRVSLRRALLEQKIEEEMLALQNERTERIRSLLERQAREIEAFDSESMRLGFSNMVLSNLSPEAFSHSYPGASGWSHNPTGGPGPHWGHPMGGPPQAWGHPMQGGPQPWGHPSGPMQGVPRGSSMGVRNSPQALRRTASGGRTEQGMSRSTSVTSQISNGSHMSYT
Serine/threonine-protein kinase N3 ; PKN3 ; Q6P5Z2, sequence (Q6P5Z2 whole entry, one chain of several): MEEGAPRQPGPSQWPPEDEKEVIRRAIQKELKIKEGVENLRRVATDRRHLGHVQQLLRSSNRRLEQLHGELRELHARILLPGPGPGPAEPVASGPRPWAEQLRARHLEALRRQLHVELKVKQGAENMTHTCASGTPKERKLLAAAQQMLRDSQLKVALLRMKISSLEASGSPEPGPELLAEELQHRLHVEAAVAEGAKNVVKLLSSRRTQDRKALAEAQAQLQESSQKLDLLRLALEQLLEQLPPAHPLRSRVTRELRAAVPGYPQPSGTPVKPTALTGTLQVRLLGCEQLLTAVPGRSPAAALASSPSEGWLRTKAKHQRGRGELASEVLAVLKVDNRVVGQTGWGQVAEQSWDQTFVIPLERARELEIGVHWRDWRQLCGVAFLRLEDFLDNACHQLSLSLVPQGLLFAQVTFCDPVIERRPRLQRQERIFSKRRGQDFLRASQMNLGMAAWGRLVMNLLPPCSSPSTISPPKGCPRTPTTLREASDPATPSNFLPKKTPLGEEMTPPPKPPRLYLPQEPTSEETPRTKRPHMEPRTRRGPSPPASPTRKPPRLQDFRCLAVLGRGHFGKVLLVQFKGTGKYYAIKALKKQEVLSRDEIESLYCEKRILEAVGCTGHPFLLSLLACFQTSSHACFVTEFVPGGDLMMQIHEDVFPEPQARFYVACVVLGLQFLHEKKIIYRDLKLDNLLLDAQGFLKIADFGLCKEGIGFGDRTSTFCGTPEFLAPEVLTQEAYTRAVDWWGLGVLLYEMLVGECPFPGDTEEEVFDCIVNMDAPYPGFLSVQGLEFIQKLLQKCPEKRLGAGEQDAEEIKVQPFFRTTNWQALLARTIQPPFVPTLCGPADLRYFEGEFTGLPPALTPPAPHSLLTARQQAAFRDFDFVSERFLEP
Atypical kinase COQ8A, mitochondrial ; COQ8A ; Q8NI60, sequence (Q8NI60 whole entry): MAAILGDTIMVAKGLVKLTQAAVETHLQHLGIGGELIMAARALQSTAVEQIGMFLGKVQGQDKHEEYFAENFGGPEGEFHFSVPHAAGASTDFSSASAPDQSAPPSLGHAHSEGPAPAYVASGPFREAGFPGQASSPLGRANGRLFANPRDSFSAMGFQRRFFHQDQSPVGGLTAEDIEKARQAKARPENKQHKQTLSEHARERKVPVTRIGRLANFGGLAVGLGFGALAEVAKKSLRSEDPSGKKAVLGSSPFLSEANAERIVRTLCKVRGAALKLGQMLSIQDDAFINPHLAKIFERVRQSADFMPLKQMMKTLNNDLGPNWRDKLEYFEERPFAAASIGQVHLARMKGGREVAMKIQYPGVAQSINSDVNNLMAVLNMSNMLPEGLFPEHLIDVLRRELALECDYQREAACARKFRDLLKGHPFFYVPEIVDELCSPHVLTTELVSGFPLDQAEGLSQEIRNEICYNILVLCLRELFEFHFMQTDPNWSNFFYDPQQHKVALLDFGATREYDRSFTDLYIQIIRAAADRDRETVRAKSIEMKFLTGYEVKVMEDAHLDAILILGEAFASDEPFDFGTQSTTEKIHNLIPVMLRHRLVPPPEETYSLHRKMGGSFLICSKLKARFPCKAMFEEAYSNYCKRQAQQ
Mitogen-activated protein kinase 9 ; MAPK9 ; P45984, sequence (P45984 whole entry): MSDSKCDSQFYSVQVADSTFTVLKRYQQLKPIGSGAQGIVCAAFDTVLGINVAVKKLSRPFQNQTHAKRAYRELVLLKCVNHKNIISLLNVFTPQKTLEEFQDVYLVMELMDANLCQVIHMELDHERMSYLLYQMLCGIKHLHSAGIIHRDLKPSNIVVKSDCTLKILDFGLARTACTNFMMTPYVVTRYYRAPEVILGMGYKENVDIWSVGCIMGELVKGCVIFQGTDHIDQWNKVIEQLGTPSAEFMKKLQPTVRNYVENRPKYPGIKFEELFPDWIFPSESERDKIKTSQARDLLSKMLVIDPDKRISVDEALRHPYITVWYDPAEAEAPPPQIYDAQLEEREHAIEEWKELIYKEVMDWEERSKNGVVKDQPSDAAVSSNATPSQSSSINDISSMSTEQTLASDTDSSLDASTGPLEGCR

## COc1cc(F)ccc1-c1ncnc(Nc2cccc(C[S@](C)(=N)=O)c2)n1 [BAY-1143572]
[1]; [24]
  remaining activity at 10 µM: 119%
[2]; [24]
  remaining activity at 10 µM: 80.9%
[3]; [24]
  remaining activity at 10 µM: 121%
[4]; [24]
  remaining activity at 10 µM: 114%
[5]; [24]
  remaining activity at 10 µM: 141%
[6]; [24]
  remaining activity at 10 µM: 67.4%
[7]; [24]
  remaining activity at 10 µM: 125%
[8]; [24]
  remaining activity at 10 µM: 106%
[9]; [24]
  remaining activity at 10 µM: 108%
[10]; [24]
  remaining activity at 10 µM: 178%
[11]; [24]
  remaining activity at 10 µM: 106%
[12]; [24]
  remaining activity at 10 µM: 91.7%
[13]; [24]
  remaining activity at 10 µM: 121%
[14]; [24]
  remaining activity at 10 µM: 112%
[15]; [24]
  remaining activity at 10 µM: 175%
[16]; [24]
  remaining activity at 10 µM: 88.7%
[17]; [24]
  remaining activity at 10 µM: 116%
[18]; [24]
  remaining activity at 10 µM: 109%
[19]; [24]
  remaining activity at 10 µM: 106%
[20]; [24]
  remaining activity at 10 µM: 102%
[21]; [24]
  remaining activity at 10 µM: 99.7%
[22]; [24]
  remaining activity at 10 µM: 88.5%
[23]; [24]
  remaining activity at 10 µM: 109%

## COc1cc(F)ccc1-c1cc(Nc2cc(CS(C)(=N)=O)ccn2)ncc1F (stereo not shown) [BAY-1251152]
[1]; [25]
  remaining activity at 10 µM: 104%
[2]; [25]
  remaining activity at 10 µM: 85%
[3]; [25]
  remaining activity at 10 µM: 117%
[4]; [25]
  remaining activity at 10 µM: 88.3%
[5]; [25]
  remaining activity at 10 µM: 128%
[6]; [25]
  remaining activity at 10 µM: 83.2%
[7]; [25]
  remaining activity at 10 µM: 123%
[8]; [25]
  remaining activity at 10 µM: 73.8%
[9]; [25]
  remaining activity at 10 µM: 107%
[10]; [25]
  remaining activity at 10 µM: 142%
[11]; [25]
  remaining activity at 10 µM: 142%
[12]; [25]
  remaining activity at 10 µM: 105%
[13]; [25]
  remaining activity at 10 µM: 114%
[14]; [25]
  remaining activity at 10 µM: 105%
[15]; [25]
  remaining activity at 10 µM: 163%
[16]; [25]
  remaining activity at 10 µM: 112%
[17]; [25]
  remaining activity at 10 µM: 113%
[18]; [25]
  remaining activity at 10 µM: 106%
[19]; [25]
  remaining activity at 10 µM: 113%
[20]; [25]
  remaining activity at 10 µM: 99.3%
[21]; [25]
  remaining activity at 10 µM: 109%
[22]; [25]
  remaining activity at 10 µM: 84.7%
[23]; [25]
  remaining activity at 10 µM: 106%
